# From article PMC10141516 (Pharmaceutics, 2023)
# How the values were obtained:
# [1] = Stability study of the APIs in pH buffers (total impurity by HPLC); format: physicochemical
# Method: The column used was the Gemini C18 column (5.0 μm, 250 mm). Mobile phase A of the impurity study was prepared with KH2PO4 buffer (v/v, solution adjusted to pH 6.0 with 1 M KOH): acetonitrile: methanol = 85: 10: 5 (v/v/v), and mobile phase B was prepared with 90% acetonitrile. The mobile phase was filtered through a 0.4 μm polypropylene membrane filter and degassed via sonication. The diluted solution was prepared with KH2PO4 buffer (v/v, solution adjusted to pH 6.0 with 1 M KOH) and acetonitrile at a ratio of 7:3 (v/v). The wavelength, flow rate, and injection volume were set to 220 nm, 1.0 mL/min, and 20 μL, respectively. The column and sample thermostats were set to 35 °C and 5 °C, respectively. In the case of the impurity study, the analysis was performed by changing the composition of the mobile phase for 80 min using a gradient elution method for 80 min.
# […] […] We performed a calibration test, and the sample was diluted with a diluted solution and prepared at a concentration of 0.05–1 mg/mL.
# [2] = Compatibility study API-excipient / API-API (total impurities by HPLC); format: physicochemical
# Method: The column used was the Gemini C18 column (5.0 μm, 250 mm). […] The mobile phase was filtered through a 0.4 μm polypropylene membrane filter and degassed via sonication. […] The column and sample thermostats were set to 35 °C and 5 °C, respectively. […] The compatibility study was performed using appearance and impurity tests to confirm the interaction between each API and the excipient. Each API was mixed with mannitol, microcrystalline cellulose, lactose, silicified microcrystalline cellulose, calcium hydrogen phosphate anhydrous, pregelatinized starch, sodium starch glycolate, crospovidone, sodium croscarmellose, magnesium stearate, colloidal silicon dioxide, sodium stearyl fumarate, hydroxypropyl cellulose, calcium hydroxide, citric acid, and OPADRY II pink in a 1:1 (w/w) ratio and put into each clear glass vial.
# [3] = Equilibrium solubility test (HPLC); details: for solubility thermodynamic at 12 h / solubility thermodynamic at 24 h: thermodynamic from solid
# Method: The column used was an Agilent C18 column (5.0 μm, 4.6 × 150 mm). The mobile phase and diluted solution of the content and dissolution studies analyses were prepared with 0.5% triethylamine buffer (v/v, pH 6.8 adjusted with 85% phosphoric acid) and acetonitrile at a ratio of 7:3 (v/v). The mobile phase was filtered through a 0.45-μm polypropylene membrane filter and degassed via sonication. The wavelength, flow rate, and injection volume were set to 205 nm, 1.5 mL/min, and 20 μL, respectively. In the case of the content and dissolution studies, the mobile phase was constantly flowed for 18 min via an isocratic elution method and analyzed.
# The equilibrium solubility test was used to calculate the input amount through the apparent solubility test result, and an excess of the API was placed in each beaker and stirred at 400 rpm. At 0, 12, and 24 h immediately after the overdose, 2 mL samples were taken and filtered through a 0.45-μm regenerated cellulose syringe filter. The supernatant of the filtered solution was taken and diluted with a content analysis diluted solution. […] A calibration test was performed, and the sample was diluted with a diluted solution and prepared at a concentration of 0.05–1 mg/mL.
# [4] = oral; cited from earlier work
# [5] = buffer solution, pH 3, aqueous buffer
# [6] = buffer solution, pH 4, aqueous buffer
# [7] = buffer solution, pH 5, aqueous buffer
# [8] = buffer solution, pH 6, aqueous buffer
# [9] = buffer solution, pH 6.8, aqueous buffer
# [10] = buffer solution, pH 7, aqueous buffer
# [11] = buffer solution, pH 8, aqueous buffer
# [12] = buffer solution, pH 9, aqueous buffer
# [13] = buffer solution, pH 10, aqueous buffer
# [14] = pH 1.2 buffer solution, pH 1.2, aqueous buffer
# [15] = pH 2.0 buffer solution, pH 2, aqueous buffer
# [16] = pH 12.0 buffer solution, pH 12, aqueous buffer
smiles,measurement,setting,value
"CCOc1ccc(Cc2cc([C@@H]3O[C@H](CO)[C@@H](O)[C@H](O)[C@H]3O)ccc2Cl)cc1 [Dapagliflozin, (1S)-1,5-Anhydro-1-C-[4-chloro-3-[(4-ethoxyphenyl)methyl]phenyl]-D-glucitol (S)-propane-1,2-diol (1:1) monohydrate]",Total Impurity,"[1]; pH 10.0 buffer, 20 ± 2 °C/60 ± 5% RH, 3 Days",0.46%
same,Total Impurity,"[1]; pH 10.0 buffer, 20 ± 2 °C/60 ± 5% RH, 7 Days",0.66%
same,Total Impurity,"[1]; pH 10.0 buffer, 40 ± 2 °C/75 ± 5% RH, 3 Days",0.30%
same,Total Impurity,"[1]; pH 10.0 buffer, 40 ± 2 °C/75 ± 5% RH, 7 Days",4.78%
same,Total Impurity,"[1]; pH 10.0 buffer, Initial",0.15%
same,Total Impurity,"[1]; pH 11.0 buffer, 20 ± 2 °C/60 ± 5% RH, 3 Days",0.14%
same,Total Impurity,"[1]; pH 11.0 buffer, 20 ± 2 °C/60 ± 5% RH, 7 Days",0.22%
same,Total Impurity,"[1]; pH 11.0 buffer, 40 ± 2 °C/75 ± 5% RH, 3 Days",1.99%
same,Total Impurity,"[1]; pH 11.0 buffer, 40 ± 2 °C/75 ± 5% RH, 7 Days",3.69%
same,Total Impurity,"[1]; pH 11.0 buffer, Initial",0.00%
same,Total Impurity,"[1]; pH 12.0 buffer, 20 ± 2 °C/60 ± 5% RH, 3 Days",0.75%
same,Total Impurity,"[1]; pH 12.0 buffer, 20 ± 2 °C/60 ± 5% RH, 7 Days",1.05%
same,Total Impurity,"[1]; pH 12.0 buffer, 40 ± 2 °C/75 ± 5% RH, 3 Days",2.62%
same,Total Impurity,"[1]; pH 12.0 buffer, 40 ± 2 °C/75 ± 5% RH, 7 Days",4.11%
same,Total Impurity,"[1]; pH 12.0 buffer, Initial",0.00%
same,Total Impurities,"[2]; 20 ± 2 °C/60 ± 5% RH, 2 Weeks",0.10%
same,Total Impurities,"[2]; 20 ± 2 °C/60 ± 5% RH, 4 Weeks",0.09%
same,Total Impurities,"[2]; 40 ± 2 °C/75 ± 5% RH, 2 Weeks",0.08%
same,Total Impurities,"[2]; 40 ± 2 °C/75 ± 5% RH, 4 Weeks",0.12%
same,Total Impurities,[2]; Initial,0.09%
same,amount dissolved in dissolution medium,[3]; 900 mL of dissolution medium,more than 0.33 mg per 1 mL
same,solubility thermodynamic at 12 h,[3]; [5],400 µg/mL
same,solubility thermodynamic at 24 h,[3]; [5],400 µg/mL
same,solubility thermodynamic at 12 h,[3]; [6],370 µg/mL
same,solubility thermodynamic at 24 h,[3]; [6],370 µg/mL
same,solubility thermodynamic at 12 h,[3]; [7],370 µg/mL
same,solubility thermodynamic at 24 h,[3]; [7],370 µg/mL
same,solubility thermodynamic at 12 h,[3]; [8],320 µg/mL
same,solubility thermodynamic at 24 h,[3]; [8],320 µg/mL
same,solubility thermodynamic at 12 h,[3]; [9],330 µg/mL
same,solubility thermodynamic at 24 h,[3]; [9],330 µg/mL
same,solubility thermodynamic at 12 h,[3]; [10],320 µg/mL
same,solubility thermodynamic at 24 h,[3]; [10],320 µg/mL
same,solubility thermodynamic at 12 h,[3]; [11],350 µg/mL
same,solubility thermodynamic at 24 h,[3]; [11],350 µg/mL
same,solubility thermodynamic at 12 h,[3]; [12],340 µg/mL
same,solubility thermodynamic at 24 h,[3]; [12],340 µg/mL
same,solubility thermodynamic at 12 h,[3]; [13],340 µg/mL
same,solubility thermodynamic at 24 h,[3]; [13],340 µg/mL
same,solubility thermodynamic at 12 h,"[3]; buffer solution, pH 11, aqueous buffer",210 µg/mL
same,solubility thermodynamic at 12 h,"[3]; deionized water, water",290 µg/mL
same,solubility thermodynamic at 24 h,"[3]; deionized water, water",290 µg/mL
same,solubility thermodynamic at 12 h,[3]; [14],340 µg/mL
same,solubility thermodynamic at 24 h,[3]; [14],340 µg/mL
same,solubility thermodynamic at 12 h,[3]; [15],350 µg/mL
same,solubility thermodynamic at 24 h,[3]; [15],350 µg/mL
same,solubility thermodynamic at 24 h,"[3]; pH 11.0 buffer solution, pH 11, aqueous buffer",210 µg/mL
same,solubility thermodynamic at 12 h,[3]; [16],240 µg/mL
same,solubility thermodynamic at 24 h,[3]; [16],240 µg/mL
same,Tmax,[4],2 h
